According to ChEMBL document CHEMBL1201862, “PubChem BioAssay data set” (2004):
Where “and” joins values, the source holds several entries; their conditions need not be identical. Identical values can stand only once.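 Five compound concentrations were applied to cells in 96-well plates for 48 hours; endpoints were derived by simple linear interpolation of the resulting dose-response curve. GI50 = concentration required for 50% inhibition of growth.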 Calls of active or inactive are those of the source. Cut-off read from the data, not from the text of the source: active = GI50 up to about 1.1 µM and inactive = higher.

Legend:
Experiment in all cases: NCI-60 cell line screen, 48 h
SF-268 = tested on: SF-268
TK-10 = tested on: TK-10
NCI/ADR-RES = tested on: NCI/ADR-RES
CAKI-1 = tested on: CAKI-1
SK-OV-3 = tested on: SK-OV-3
HCT-15 = tested on: HCT-15
UACC-62 = tested on: UACC-62
SF-539 = tested on: SF-539
NCI-H23 = tested on: NCI-H23
OVCAR-5 = tested on: OVCAR-5
ACHN = tested on: ACHN
HCC 2998 = tested on: HCC 2998
A498 = tested on: A498
SNB-19 = tested on: SNB-19
HT-29 = tested on: HT-29
SNB-75 = tested on: SNB-75
OVCAR-4 = tested on: OVCAR-4
NCI-H522 = tested on: NCI-H522
NCI-H226 = tested on: NCI-H226
SK-MEL-28 = tested on: SK-MEL-28

SMILES | GI50 (SF-268) | GI50 (TK-10) | GI50 (NCI/ADR-RES) | GI50 (CAKI-1) | GI50 (SK-OV-3) | GI50 (HCT-15) | GI50 (UACC-62) | GI50 (SF-539) | GI50 (NCI-H23) | GI50 (OVCAR-5) | GI50 (ACHN) | GI50 (HCC 2998) | GI50 (A498) | GI50 (SNB-19) | GI50 (HT-29) | GI50 (SNB-75) | GI50 (OVCAR-4) | GI50 (NCI-H522) | GI50 (NCI-H226) | GI50 (SK-MEL-28)
Nc1nc(N)c2c(Cl)c(CNc3ccc(C(=O)NC(CC(=O)O)C(=O)O)cc3)ccc2n1 (centres undefined) | < 0.01 µM (active) | < 0.01 µM (active) | < 0.01 µM (active) | < 0.01 µM (active) | < 0.01 µM (active) | < 0.01 µM | < 0.01 µM (active) | < 0.01 µM (active) | < 0.01 µM (active) | < 0.01 µM (active) | < 0.01 µM (active) | > 100 µM (inactive) | < 0.01 µM (active) | < 0.01 µM (active) | < 0.01 µM (active) | 8.87 µM (inactive) | 3.69 µM (inactive) | < 0.01 µM (active) |  | 
CC(=O)c1c(-c2cccc3ccccc23)c(C#N)c(=S)n(C2OC(CO)C(O)C(O)C2O)c1C (centres undefined) | > 100 µM (inactive) | > 100 µM (inactive) | 62.2 µM (inactive) | 53.1 µM (inactive) | > 100 µM (inactive) | > 100 µM | 64.7 µM (inactive) |  | > 100 µM (inactive) and 52.2 µM (inactive) | > 100 µM (inactive) | > 100 µM (inactive) | > 100 µM (inactive) | > 100 µM (inactive) | 59.7 µM (inactive) | > 100 µM (inactive) | > 100 µM (inactive) | > 100 µM (inactive) | > 100 µM (inactive) | > 100 µM (inactive) | > 100 µM (inactive)
Cc1ccc(NC=O)c(-c2c(N)[nH]c(=S)[nH]c2=O)c1 | > 100 µM (inactive) | > 100 µM (inactive) | > 100 µM (inactive) | > 100 µM (inactive) | 12.3 µM (inactive) | > 100 µM | > 100 µM (inactive) | > 100 µM (inactive) | > 100 µM (inactive) | > 100 µM (inactive) | 60.7 µM (inactive) |  | > 100 µM (inactive) | > 100 µM (inactive) | > 100 µM (inactive) | > 100 µM (inactive) |  | > 100 µM (inactive) | > 100 µM (inactive) | 
COC(=O)CC1CN(C(=O)OCc2ccccc2)C(C)(C)O1 (centres undefined) |  | 56.9 µM (inactive) | > 100 µM (inactive) | > 100 µM (inactive) | > 100 µM (inactive) | > 100 µM | > 100 µM (inactive) | > 100 µM (inactive) | 28.8 µM (inactive) | > 100 µM (inactive) | > 100 µM (inactive) | > 100 µM (inactive) | > 100 µM (inactive) | 7.08 µM (inactive) |  | 3.3 µM (inactive) | > 100 µM (inactive) | 5.46 µM (inactive) | 2 µM (inactive) | 9.06 µM (inactive)
CN(C)CCNc1c2ccccc2c2c3c(cccc13)C(=O)N(CCN(C)C)C2=O | 0.22 µM (active) |  | 0.0627 µM (active) | 0.423 µM (active) | 0.221 µM (active) | 0.0615 µM | 0.308 µM (active) | 0.374 µM (active) | 0.0904 µM (active) | 0.224 µM (active) |  | 0.152 µM (active) | 0.641 µM (active) | 0.28 µM (active) | 0.029 µM (active) | 0.176 µM (active) | 0.0455 µM (active) | 0.123 µM (active) | 1.82 µM (inactive) | 0.0735 µM (active)
O=c1[nH]c2ccsc2c(=O)n1COCc1ccccc1 | > 100 µM (inactive) | > 100 µM (inactive) | > 100 µM (inactive) | > 100 µM (inactive) |  | > 100 µM |  | > 100 µM (inactive) | > 100 µM (inactive) | > 100 µM (inactive) | > 100 µM (inactive) | > 100 µM (inactive) | > 100 µM (inactive) | > 100 µM (inactive) | > 100 µM (inactive) | > 100 µM (inactive) | > 100 µM (inactive) | > 100 µM (inactive) | > 100 µM (inactive) | > 100 µM (inactive)
CC1NC(=O)CC(c2ccccc2)N(N=O)C1c1ccccc1 (centres undefined) | 31.8 µM (inactive) |  | 25.2 µM (inactive) | 37.1 µM (inactive) | 22.8 µM (inactive) | 39.5 µM | 35.4 µM (inactive) | 23.4 µM (inactive) | 36.2 µM (inactive) | > 100 µM (inactive) |  | 35.4 µM (inactive) | 8.89 µM (inactive) | 40 µM (inactive) | 29.7 µM (inactive) | 25.4 µM (inactive) | 19.9 µM (inactive) | 22.1 µM (inactive) | 58.5 µM (inactive) | 40.8 µM (inactive)
CN(C)CCNC(=O)c1cccc2c(NCC(=O)O)c3ccccc3nc12 | 11.5 µM (inactive) | 31 µM (inactive) | 11.9 µM (inactive) |  | 21.1 µM (inactive) | 10.1 µM | 15.1 µM (inactive) |  | 15.2 µM (inactive) | 13.5 µM (inactive) | 5.82 µM (inactive) |  | 18.6 µM (inactive) | 6.49 µM (inactive) | 3.07 µM (inactive) | 17.6 µM (inactive) | 9.82 µM (inactive) | 10.6 µM (inactive) | 4.82 µM (inactive) | 20.6 µM (inactive)
CCOC(=O)C1=CC(C)(C(=O)OCC)Nc2c(nc(OC)[nH]c2=O)N1 (centres undefined) | > 10 µM (inactive) | > 10 µM (inactive) | > 10 µM (inactive) | > 10 µM (inactive) | > 10 µM (inactive) | > 10 µM |  | > 10 µM (inactive) | > 10 µM (inactive) | > 10 µM (inactive) | > 10 µM (inactive) | > 10 µM (inactive) | > 10 µM (inactive) | > 10 µM (inactive) | > 10 µM (inactive) | > 10 µM (inactive) | > 10 µM (inactive) | > 10 µM (inactive) | > 10 µM (inactive) | > 10 µM (inactive)
CN(/N=C/c1ccc(OCc2cccc(COc3ccc(C=O)cc3)n2)cc1)c1cnn(-c2ccc(Cl)cc2Cl)c(=O)c1Cl | 56 µM (inactive) | 64.9 µM (inactive) | 21.2 µM (inactive) | > 100 µM (inactive) |  | > 100 µM | > 100 µM (inactive) | 12.5 µM (inactive) | > 100 µM (inactive) | > 100 µM (inactive) | 73.5 µM (inactive) | > 100 µM (inactive) | 48.5 µM (inactive) | 50.7 µM (inactive) | > 100 µM (inactive) | 11.4 µM (inactive) | 6.9 µM (inactive) | > 100 µM (inactive) | > 100 µM (inactive) | > 100 µM (inactive)
CS(=O)(=O)N1CC(CCl)c2ccc(O)cc21 (centres undefined) | 0.155 µM (active) | 2.32 µM (inactive) | 2.56 µM (inactive) | 2.42 µM (inactive) |  | 3.15 µM | 4.17 µM (inactive) | 2.04 µM (inactive) | 2.02 µM (inactive) | 3.63 µM (inactive) | 3.4 µM (inactive) | 1.95 µM (inactive) | 1.83 µM (inactive) |  | 2.86 µM (inactive) | 2.71 µM (inactive) | 2.86 µM (inactive) | 1.47 µM (inactive) | 2.34 µM (inactive) | 3.4 µM (inactive)
